Here are results for two compounds from patent publication US20260174786A1, “A NITROGEN-CONTAINING SPIROCYCLIC COMPOUND, PHARMACEUTICAL COMPOSITION AND USE THEREOF” (Prime Gene Therapeutics Co., Ltd., priority 2022, published 2026).

Data set [1] is described as follows: Liver microsome metabolism stability test (rat). Type of data set: in vitro ADME. As to conditions: rat liver microsomes, 1 μM compound. On the procedure:
(§1) Two separate experiments were conducted. a) NADPH: 10 μL of 20 mg/mL liver microsomes and 40 μL of 10 mM NADPH were added to a culture medium. The final concentrations of microsomes and NADPH were 0.5 mg/mL and 1 mM, respectively. b) NADPH free: 10 μL of 20 mg/mL liver microsomes and 40 μL of ultrapure H2O were added to a culture medium. The final concentration of microsomes was 0.5 mg/mL.
(§2) At the beginning of the reaction, 4 μL of 100 μM test compound solution or a control compound solution with a final concentration of 1 μM were added, and proceed at 37° C.
(§3) 50 μL aliquots were taken from the reaction solution at 0, 7, 15, 30, and 60 minutes. The reaction was stopped by adding 4 volumes of cold acetonitrile and IS (100 nM alprazolam, 200 nM labetalol, 200 nM caffeine, and 2 μM ketoprofen). The samples were centrifuged at 3220 grams for 40 minutes. 100 μL supernatant divided equally was mixed with 100 μL of ultrapure H2O, and use for LC-MS/MS analysis.
(Liver microsomes are vesicles of endoplasmic reticulum, rich in cytochrome P450 enzymes.)

The nature of data set [2]: Liver microsome metabolism stability test (human). As to conditions: human liver microsomes, 1 μM compound. Type of data set: in vitro ADME. The method, then:
as §1, §2, §3

Data set [3] is described as follows: Balanced dialysis plasma protein binding test (rat). The format is in vitro ADME. On the procedure: (§4) 1. Immersing a dialysis membrane (water: 60 minutes, 20% ethanol: 20 minutes, dialysis buffer: 20 minutes). 2. Diluting the test compound in dimethyl sulfoxide (working solution) to 200 μM. 3. Thawing the plasma in a 37° C. water bath and centrifuge the plasma at 3220 g for 10 minutes to remove blood clots. 4. Transferring the supernatant to a new tube and preheating it in a 37° C. water bath for 10 minutes. 5. Assembling HTD dialysis equipment according to the manufacturer's guidelines. 6. Adding 3 μL of 200 μM test compound to 597 μL of plasma and rotating at 1000 rpm for 2 minutes. 7. Transferring 50 μL of spiked plasma to a 96 well plate, then adding 50 μL of dialysis buffer and 200 μL of methanol, using IS * as the T0 sample. 8. Adding 120 μL of spiked plasma and 120 μL of dialysis buffer in duplicate into the chamber of the HTD dialysis device. 9. Covering the dialysis equipment with a breathable cover and incubating the dialysis equipment and the remaining spiked plasma at 37° C. (100 rpm, 5% CO2) for 6 hours. 10. Transferring 50 μL of dialyzed sample from the dialysis buffer and the plasma chamber to a separate 96 well plate, then adding 50 μL of blank plasma or dialysis buffer and 200 μL of methanol, with IS * as the B and P samples. 11. Transferring 50 μL of remaining spiked plasma (as described in step 9) to a 96 well plate, then adding 50 μL of dialysis buffer and 200 μL of methanol, with IS * as the T6 sample. 12. Centrifuging the sample plate at 3220 g for 40 minutes. 13. Transferring 100 μL of supernatant onto an analytical plate containing an appropriate volume of water for LC-MS/MS. 14. Data analysis.

Data set [4] in a line: Balanced dialysis plasma protein binding test (human). Type of data set: in vitro ADME. The method, then:
as §4

Data set [5] has as its target hTRPV1 (Homo sapiens, UniProt Q8NER1). The data set is described as follows: Inhibition rate on different hTRPs: hTRPV1. Type of data set: cell-based.
Data set [6] in a line: Stability assessment of compounds at room temperature under 92.5% humidity (LC-MS). Type of data set: physicochemical. As to conditions: 92.5% humidity. On the procedure:
Taking the compound of Example 21 and KM-001-E1 in WO2021154966A1 as examples, the stability thereof was compared:
Compound of Example 21 and KM-001-E1 were accurately weighed and placed in penicillin bottles, and placed at room temperature under 92.5% humidity (open) conditions for 5-10 days to investigate the stability of the compounds.
• instrument: Thermo U3000-ISQEC • column: Xtimate UHPLC C18 1.8 μm 4.6*50 mm • Column temperature: 35° C. • wavelength: 210 nm, 254 nm • mobile phase A: 0.05% formic acid aqueous solution; mobile phase B: 0.05% formic acid acetonitrile; gradient: 30% B 0-1.2 min, 95% B 1.2-3.3 min, 30% B 3.3-4.5 min;
Analyzing the degradation impurities of each compound under 92.5% humidity conditions using LC-MS: The main impurities in Example 21 had m/z 427.17, with a retention time of 2.55 minutes. After being left for 10 days, the peak area proportion was only 0.3%; The main impurities in KM-001-E1 has m/z=431.14 and m/z=415.16, with retention times of 2.31 minutes and 2.64 minutes, respectively. […] Based on LC-MS and NMR data analysis, it can be inferred that the main impurities produced in Example 21 are ketones, while the main impurities produced in KM-001-E1 are aldehydes and carboxylic acids.

Data set [7] concerns the target hTRPV4 (Homo sapiens, UniProt Q9HBA0). The data set is described as follows: Inhibition rate on different hTRPs: hTRPV4. The format is cell-based.

Chain of hTRPV1 (Q8NER1 whole entry): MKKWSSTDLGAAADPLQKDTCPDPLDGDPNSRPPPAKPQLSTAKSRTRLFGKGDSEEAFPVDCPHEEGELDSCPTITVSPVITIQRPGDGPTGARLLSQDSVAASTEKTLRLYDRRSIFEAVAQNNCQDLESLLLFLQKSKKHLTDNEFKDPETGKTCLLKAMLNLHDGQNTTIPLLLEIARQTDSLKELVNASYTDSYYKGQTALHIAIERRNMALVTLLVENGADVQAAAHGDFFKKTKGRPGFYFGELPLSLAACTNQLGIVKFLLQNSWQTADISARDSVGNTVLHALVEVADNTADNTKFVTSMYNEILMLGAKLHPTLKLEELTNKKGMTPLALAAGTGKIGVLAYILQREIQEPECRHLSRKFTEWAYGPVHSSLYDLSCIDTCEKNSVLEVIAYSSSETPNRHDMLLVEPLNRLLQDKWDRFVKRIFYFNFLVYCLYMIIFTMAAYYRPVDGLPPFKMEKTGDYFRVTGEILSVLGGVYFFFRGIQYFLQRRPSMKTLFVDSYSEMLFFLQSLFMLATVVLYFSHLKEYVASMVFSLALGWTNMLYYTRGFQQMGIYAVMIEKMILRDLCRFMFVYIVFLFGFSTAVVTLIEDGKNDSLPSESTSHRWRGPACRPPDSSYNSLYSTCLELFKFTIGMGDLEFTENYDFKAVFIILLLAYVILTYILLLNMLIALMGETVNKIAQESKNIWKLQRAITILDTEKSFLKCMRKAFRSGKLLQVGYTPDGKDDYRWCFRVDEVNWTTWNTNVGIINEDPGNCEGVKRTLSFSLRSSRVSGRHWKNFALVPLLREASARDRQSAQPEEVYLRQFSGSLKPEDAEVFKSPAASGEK
Chain of hTRPV4 (Q9HBA0 whole entry): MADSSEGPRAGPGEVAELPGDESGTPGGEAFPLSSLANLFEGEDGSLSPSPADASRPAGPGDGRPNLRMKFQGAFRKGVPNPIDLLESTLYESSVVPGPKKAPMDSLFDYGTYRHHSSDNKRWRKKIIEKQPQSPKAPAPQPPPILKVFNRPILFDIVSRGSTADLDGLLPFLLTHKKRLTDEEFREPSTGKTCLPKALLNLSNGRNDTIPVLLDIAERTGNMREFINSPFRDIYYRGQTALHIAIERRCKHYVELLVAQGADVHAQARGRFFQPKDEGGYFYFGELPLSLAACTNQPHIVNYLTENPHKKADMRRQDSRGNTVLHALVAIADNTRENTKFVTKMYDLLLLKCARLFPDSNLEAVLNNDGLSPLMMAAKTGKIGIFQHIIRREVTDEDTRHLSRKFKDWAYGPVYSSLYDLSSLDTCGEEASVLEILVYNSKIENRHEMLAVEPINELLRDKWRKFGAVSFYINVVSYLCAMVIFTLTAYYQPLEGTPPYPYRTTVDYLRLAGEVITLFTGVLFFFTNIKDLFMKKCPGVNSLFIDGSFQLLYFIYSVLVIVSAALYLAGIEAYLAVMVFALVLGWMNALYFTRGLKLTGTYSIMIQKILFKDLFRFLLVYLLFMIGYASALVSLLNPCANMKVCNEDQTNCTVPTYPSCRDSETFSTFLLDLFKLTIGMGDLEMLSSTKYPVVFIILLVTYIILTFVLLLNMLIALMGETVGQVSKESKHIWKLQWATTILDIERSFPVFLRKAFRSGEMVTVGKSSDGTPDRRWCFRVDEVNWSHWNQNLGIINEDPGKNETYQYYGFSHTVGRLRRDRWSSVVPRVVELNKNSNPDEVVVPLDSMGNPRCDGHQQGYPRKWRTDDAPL

For `O=C(c1ccc(F)cn1)N1CCC2(CC(O)c3cc(-c4ccccc4C4CC4)ccc32)C1` (centres unmarked) [Example 15, (5-(2-cyclopropylphenyl)-3-hydroxy-2,3-dihydrospiro[indene-1,3′-pyrrolidine]-1′-yl)(5-fluoropyridin-2-yl) ketone], the results for the “in vitro Clint” value in data set [1] and in data set [2] were 53.68 microliters/minute/milligrams and 70.41 microliters/minute/milligrams, respectively. In addition, the half-life at 1 μM was determined as 25.8 min in data set [1] (read-out: in vitro T1/2) and 19.7 min in data set [2] (read-out: in vitro T1/2). Besides, the recover % in data set [3] was found to be 92.94%; in data set [4], 87.63%. Moreover, the remaining % in data set [3] (6 hours) is 102.46%; in data set [4] (6 hours), 97.37%. Also, the binding % was found to be 99.78% in data set [3] (6 hours dialysis) and 99.58% in data set [4] (6 hours dialysis). For the same compound, the dissociated % in data set [3] (6 hours dialysis) amounted to 0.22%; in data set [4] (6 hours dialysis), 0.42%.

The term inhibition denotes the percentage by which the read-out fell short of the control. High values mean a strong effect, low ones a weak effect. With `O=C(c1ccc(F)cn1)N1CC[C@@]2(C[C@@H](O)c3cc(-c4ccccc4C4CC4)ccc32)C1` [Example 21, ((1S,3R)-5-(2-cyclopropylphenyl)-3-hydroxy-2,3-dihydrospiro[indene-1,3′-pyrrolidine]-1′-yl)(5-fluoropyridin-2-yl)ketone], the inhibition at 0.3 µM came out at 5.62% in data set [5] (hTRPV1, 0.3 μM) and 29.3% in data set [7] (hTRPV4, 0.3 μM). The Selectivity ratio in data set [5] (inhibition rate on TRPV3 / inhibition rate on hTRPV1, 0.3 μM) is reported as 16.0X; in data set [7] (inhibition rate on TRPV3 / inhibition rate on hTRPV4, 0.3 μM), 3.1X. The “stability compared with KM-001-E1 / compounds of WO2021154966A1” value in data set [6] is recorded as “better chemical stability than the primary alcohol compound in WO2021154966A1”.
